Laboratory results from PubChem BioAssay AID248 (DTP/NCI, 2004).
Values joined by “and” are separate entries in the source; they are usually repeats but may differ in a detail not shown here. Identical values can stand only once. Inconclusive results and toxic doses are left out.

Test system: L1210 leukemia ip in BDF1 mice, survival T/C
Test: NCI In Vivo Anticancer Drug Screen. Data for tumor model L1210 Leukemia (intraperitoneal) in B6D2F1 (BDF1) mice
Conditions: endpoint: mean survival time, higher = longer survival
How it was run: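 Antitumor effect is assessed in tumor-bearing animals. Survival in the compound arm is compared with a vehicle-dosed control arm and expressed as their quotient.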

[1] = dose: 50.0 mg/kg/injection, schedule: Q01DX009 (ip), vehicle: Klucel (hydroxypropylcellulose) (HPC)
[2] = dose: 100.0 mg/kg/injection, schedule: Q01DX009 (ip), vehicle: Klucel (hydroxypropylcellulose) (HPC)
[3] = dose: 200.0 mg/kg/injection, schedule: Q01DX001 (ip), vehicle: Klucel (hydroxypropylcellulose) (HPC)
[4] = dose: 200.0 mg/kg/injection, schedule: Q01DX009 (ip), vehicle: Klucel (hydroxypropylcellulose) (HPC)
[5] = dose: 200.0 mg/kg/injection, schedule: Q04DX003 (ip), vehicle: Klucel (hydroxypropylcellulose) (HPC)
[6] = dose: 400.0 mg/kg/injection, schedule: Q01DX001 (ip), vehicle: Klucel (hydroxypropylcellulose) (HPC)
[7] = dose: 400.0 mg/kg/injection, schedule: Q01DX009 (ip), vehicle: Klucel (hydroxypropylcellulose) (HPC)
[8] = dose: 400.0 mg/kg/injection, schedule: Q04DX003 (ip), vehicle: Klucel (hydroxypropylcellulose) (HPC)
[9] = dose: 100.0 mg/kg/injection, schedule: Q04DX002 (ip), vehicle: saline with Tween-80
[10] = dose: 200.0 mg/kg/injection, schedule: Q04DX002 (ip), vehicle: saline with Tween-80
[11] = dose: 400.0 mg/kg/injection, schedule: Q04DX002 (ip), vehicle: saline with Tween-80
[12] = dose: 100.0 mg/kg/injection, schedule: Q04DX003 (ip), vehicle: saline with Tween-80
[13] = dose: 200.0 mg/kg/injection, schedule: Q04DX003 (ip), vehicle: saline with Tween-80
[14] = dose: 400.0 mg/kg/injection, schedule: Q04DX003 (ip), vehicle: saline with Tween-80
[15] = dose: 50.0 mg/kg/injection, schedule: Q01DX001 (ip), vehicle: carboxymethylcellulose (CMC)
[16] = dose: 100.0 mg/kg/injection, schedule: Q01DX001 (ip), vehicle: carboxymethylcellulose (CMC)
[17] = dose: 200.0 mg/kg/injection, schedule: Q01DX001 (ip), vehicle: carboxymethylcellulose (CMC)
[18] = dose: 400.0 mg/kg/injection, schedule: Q01DX001 (ip), vehicle: carboxymethylcellulose (CMC)
[19] = dose: 100.0 mg/kg/injection, schedule: Q04DX003 (ip), vehicle: Klucel (hydroxypropylcellulose) (HPC)

SMILES: O=NN(CCCl)C(=O)NC1c2cc(Cl)ccc2-c2c(Cl)cc(Cl)cc21 (stereo unspecified)
- T/C (dose: 6.6 mg/kg/injection, schedule: Q04DX003 (ip), vehicle: Klucel (hydroxypropylcellulose) (HPC)): 103 % of control
- T/C (dose: 9.9 mg/kg/injection, schedule: Q04DX003 (ip), vehicle: Klucel (hydroxypropylcellulose) (HPC)): 116 % of control
- T/C (dose: 12.5 mg/kg/injection, schedule: Q01DX009 (ip), vehicle: Klucel (hydroxypropylcellulose) (HPC)): 115 % of control
- T/C (dose: 20.0 mg/kg/injection, schedule: Q04DX003 (ip), vehicle: Klucel (hydroxypropylcellulose) (HPC)): 102 % of control
- T/C (dose: 25.0 mg/kg/injection, schedule: Q01DX009 (ip), vehicle: Klucel (hydroxypropylcellulose) (HPC)): 124 % of control
- T/C (dose: 40.0 mg/kg/injection, schedule: Q04DX003 (ip), vehicle: Klucel (hydroxypropylcellulose) (HPC)): 119 % of control
- T/C [1]: 232 % of control
- T/C [2]: 252 % of control
- T/C (dose: 115.0 mg/kg/injection, schedule: Q04DX003 (ip), vehicle: Klucel (hydroxypropylcellulose) (HPC)): 154 % of control
- T/C [3]: 153 % of control
- T/C [4]: 267 % of control
- T/C [5]: 174 % of control
- T/C [6]: 170 % of control
- T/C [7]: 273 % of control
- T/C [8]: 157 % of control and 261 % of control

SMILES: CCOc1ccccc1/C=C1N=C(/C=C/c2ccccc2)OC\1=O
- T/C [9]: 92 % of control
- T/C [10]: 89 % of control
- T/C [11]: 97 % of control

SMILES: N=C(CNC(=O)OCc1ccccc1)N1CCCC1C(=O)O (stereo unspecified)
- T/C [12]: 100 % of control
- T/C [13]: 101 % of control
- T/C [14]: 101 % of control

SMILES: O=C(/C=C(/C(=C/C(=O)c1ccccc1)c1ccccc1)c1ccccc1)c1ccccc1
- T/C [1]: 102 % of control
- T/C [2]: 94 % of control
- T/C [4]: 87 % of control

SMILES: O=C(O)c1ccc(/C=N/Nc2nnc(N/N=C/c3ccc(C(=O)O)cc3)c3ccccc23)cc1
- T/C [15]: 113 % of control
- T/C [16]: 113 % of control
- T/C [17]: 107 % of control
- T/C [18]: 104 % of control

SMILES: CCN(CC)CCCCCCNc1ccnc2cc(Cl)ccc12
- T/C [15]: 95 % of control

SMILES: COc1ccc([N+](=O)[O-])cc1NC(=O)Nc1ccc(C(=O)OCC(C)C)cc1
- T/C [2]: 100 % of control
- T/C [4]: 100 % of control
- T/C [7]: 95 % of control

SMILES: N#CCCCCCCCCC(=O)c1ccc(O)cc1O
- T/C (dose: 87.5 mg/kg/injection, schedule: Q01DX009 (ip), vehicle: Klucel (hydroxypropylcellulose) (HPC)): 96 % of control
- T/C (dose: 175.0 mg/kg/injection, schedule: Q01DX009 (ip), vehicle: Klucel (hydroxypropylcellulose) (HPC)): 100 % of control
- T/C (dose: 350.0 mg/kg/injection, schedule: Q01DX009 (ip), vehicle: Klucel (hydroxypropylcellulose) (HPC)): 102 % of control

SMILES: CC12CCC3c4ccc(O)cc4CCC3C1CCC2O (stereo unspecified)
- T/C (dose: 50.0 mg/kg/injection, schedule: Q01DX001 (sc), vehicle: steriod suspending solution): 105 % of control and 111 % of control
- T/C (dose: 100.0 mg/kg/injection, schedule: Q01DX001 (sc), vehicle: steriod suspending solution): 98 % of control and 115 % of control
- T/C (dose: 200.0 mg/kg/injection, schedule: Q01DX001 (sc), vehicle: steriod suspending solution): 98 % of control and 103 % of control
- T/C (dose: 400.0 mg/kg/injection, schedule: Q01DX001 (sc), vehicle: steriod suspending solution): 101 % of control and 109 % of control

SMILES: COC(=O)C(CCl)NC(=O)c1ccccc1 (stereo unspecified)
- T/C (dose: 50.0 mg/kg/injection, schedule: Q01DX009 (ip), vehicle: saline): 105 % of control
- T/C (dose: 100.0 mg/kg/injection, schedule: Q01DX009 (ip), vehicle: saline): 90 % of control
- T/C [19]: 102 % of control
- T/C (dose: 200.0 mg/kg/injection, schedule: Q01DX009 (ip), vehicle: saline): 95 % of control
- T/C [5]: 96 % of control

SMILES: CCOc1ccccc1NC(=O)Oc1ccc(SC)c(C)c1
- T/C [9]: 113 % of control
- T/C [10]: 110 % of control
- T/C [11]: 103 % of control

SMILES: CNC1=C(C)C(=O)C2=C(C1=O)C(COC(N)=O)C1(O)C3C(CN21)N3C (stereo unspecified)
- T/C (dose: 6.6 mg/kg/injection, schedule: Q01DX001 (ip), vehicle: alcohol): 100 % of control
- T/C (dose: 15.0 mg/kg/injection, schedule: Q01DX001 (ip), vehicle: acetone): 104 % of control

SMILES: CCCCCCCCCCCCCCCCCC[Se][Se]CCCCCCCCCCCCCCCCCC
- T/C (dose: 6.25 mg/kg/injection, schedule: Q01DX009 (ip), vehicle: saline with Tween-80): 94 % of control
- T/C (dose: 12.5 mg/kg/injection, schedule: Q01DX009 (ip), vehicle: saline with Tween-80): 93 % of control
- T/C (dose: 25.0 mg/kg/injection, schedule: Q01DX009 (ip), vehicle: saline with Tween-80): 98 % of control and 89 % of control
- T/C [12]: 87 % of control
- T/C [14]: 86 % of control

SMILES: COc1ccc(O)c(C(=O)c2cccc(OC)c2C#N)c1
- T/C (dose: 25.0 mg/kg/injection, schedule: Q04DX003 (ip), vehicle: carboxymethylcellulose (CMC)): 104 % of control
- T/C [15]: 103 % of control
- T/C (dose: 50.0 mg/kg/injection, schedule: Q04DX003 (ip), vehicle: carboxymethylcellulose (CMC)): 116 % of control
- T/C [16]: 97 % of control
- T/C (dose: 100.0 mg/kg/injection, schedule: Q01DX009 (ip), vehicle: carboxymethylcellulose (CMC)): 99 % of control and 100 % of control
- T/C (dose: 100.0 mg/kg/injection, schedule: Q04DX002 (ip), vehicle: carboxymethylcellulose (CMC)): 100 % of control and 91 % of control
- T/C (dose: 100.0 mg/kg/injection, schedule: Q04DX003 (ip), vehicle: carboxymethylcellulose (CMC)): 107 % of control and 86 % of control
- T/C [17]: 99 % of control
- T/C (dose: 200.0 mg/kg/injection, schedule: Q01DX009 (ip), vehicle: carboxymethylcellulose (CMC)): 97 % of control and 87 % of control
- T/C (dose: 200.0 mg/kg/injection, schedule: Q04DX002 (ip), vehicle: carboxymethylcellulose (CMC)): 104 % of control and 108 % of control
- T/C [18]: 99 % of control
- T/C (dose: 400.0 mg/kg/injection, schedule: Q01DX009 (ip), vehicle: carboxymethylcellulose (CMC)): 110 % of control and 86 % of control
- T/C (dose: 400.0 mg/kg/injection, schedule: Q04DX002 (ip), vehicle: carboxymethylcellulose (CMC)): 97 % of control and 90 % of control

SMILES: CC(=O)NC1CC2c3ccccc3C1([N+](=O)[O-])c1ccccc12 (stereo unspecified)
- T/C [2]: 107 % of control
- T/C [19]: 107 % of control
- T/C (dose: 100.0 mg/kg/injection, schedule: Q04DX003 (ip), vehicle: saline): 107 % of control
- T/C [4]: 101 % of control
- T/C [5]: 105 % of control
- T/C (dose: 200.0 mg/kg/injection, schedule: Q04DX003 (ip), vehicle: saline): 105 % of control
- T/C [7]: 97 % of control
- T/C [8]: 97 % of control
- T/C (dose: 400.0 mg/kg/injection, schedule: Q04DX003 (ip), vehicle: saline): 97 % of control

SMILES: O=c1[nH]c(-c2ccccc2)nc(CN2CCCCC2)c1O
- T/C [15]: 101 % of control
- T/C [16]: 101 % of control
- T/C [17]: 98 % of control
- T/C [18]: 95 % of control

SMILES: CC(=O)Nc1ccc(N=Cc2ccc([N+](=O)[O-])s2)cc1
- T/C [12]: 100 % of control
- T/C [13]: 96 % of control
- T/C [14]: 98 % of control

SMILES: CCCCCCCCCCCCCCCCOc1ccc(C(=O)OC)cc1[N+](=O)[O-]
- T/C [12]: 94 % of control
- T/C [13]: 90 % of control
- T/C [14]: 87 % of control

SMILES: CCOC(=O)N(CCN1C(=O)c2ccccc2C1=O)c1cc(OC)ccc1OC
- T/C (dose: 100.0 mg/kg/injection, schedule: Q04DX002 (ip), vehicle: Klucel (hydroxypropylcellulose) (HPC)): 100 % of control
- T/C (dose: 200.0 mg/kg/injection, schedule: Q04DX002 (ip), vehicle: Klucel (hydroxypropylcellulose) (HPC)): 93 % of control
- T/C (dose: 400.0 mg/kg/injection, schedule: Q04DX002 (ip), vehicle: Klucel (hydroxypropylcellulose) (HPC)): 89 % of control

SMILES: COc1ccccc1N=C(C)CC(C)=O
- T/C (dose: 100.0 mg/kg/injection, schedule: Q01DX001 (ip), vehicle: Klucel (hydroxypropylcellulose) (HPC)): 100 % of control
- T/C [3]: 91 % of control
- T/C [6]: 99 % of control

SMILES: O=C1COc2cc(O)c(O)cc21
- T/C (dose: 100.0 mg/kg/injection, schedule: Q01DX001 (ip), vehicle: saline): 104 % of control
- T/C (dose: 200.0 mg/kg/injection, schedule: Q01DX001 (ip), vehicle: saline): 103 % of control
- T/C (dose: 400.0 mg/kg/injection, schedule: Q01DX001 (ip), vehicle: saline): 104 % of control

SMILES: CN(C)c1ncnc2nsnc12
- T/C [12]: 100 % of control
